What was measured:
IL-2 = details: cited from earlier work
dopaminergic neurons = details: cited from earlier work
PC12 cells = details: cited from earlier work
[1] = target: T1, hypothetical protein FLJ20297 (PG777) (Homo sapiens, UniProt Q9NXE4); test: Isolation of proteins binding 3H-triptolide in Jurkat cells; details: 3H-labeled Jurkat cell extract
T1 construct: endogenous in cells; host or cells: Jurkat
Description: (§1) Triptolide target molecules were isolated and identified by purification and identification of molecules that bind ^3H-triptolide. Jurkat cells from expanding cultures were labeled with ^3H-triptolide by cultivation at 37° C. with 5% CO2 for a period of time between a few hours and overnight (usually 6-7 hours) and harvested by centrifugation and washing in ice-cold phosphate buffered saline. The cells (usually 1-3×10^6/ml) were generally labeled with ^3H-triptolide to a final concentration of 35 nM (100 μCi/200 ml of medium). Collected cell pellets were pooled, and the cells were either extracted and subjected to separation and purification at that time, or were frozen and stored at −20° C. as pellets for extraction and investigation at a later time.
(§2) The cells were extracted with M-per buffer (Pierce) and homogenized in presence of a protease inhibitor cocktail, sometimes including other reagents such as deoxyribonuclease (DNase). […] When the extracts components were found not to be sufficiently purified, enriched or reduced in number, 2D gel electrophoresis was employed, followed by fluorography for ^3H-associated radioactivity detection, and MALDI/MS of the corresponding peptides (after proteolysis) and peptide fingerprinting. […]

[2] = tested on: human T cell lymphoma (Jurkat) cells; details: cited from earlier work
NF-κB = details: cited from earlier work
HSP 90β (PG771) = target: T2, HSP 90β (PG771) (Homo sapiens, UniProt P08238); test: Isolation of proteins binding 3H-triptolide in Jurkat cells (FPLC, 2D gel, fluorography, MALDI-MS); details: 3H-labeled compound incubated with Jurkat cells
T2 construct: Jurkat cells from expanding cultures were labeled with; endogenous in cells; host or cells: Jurkat
T2 sequence (P08238 whole entry): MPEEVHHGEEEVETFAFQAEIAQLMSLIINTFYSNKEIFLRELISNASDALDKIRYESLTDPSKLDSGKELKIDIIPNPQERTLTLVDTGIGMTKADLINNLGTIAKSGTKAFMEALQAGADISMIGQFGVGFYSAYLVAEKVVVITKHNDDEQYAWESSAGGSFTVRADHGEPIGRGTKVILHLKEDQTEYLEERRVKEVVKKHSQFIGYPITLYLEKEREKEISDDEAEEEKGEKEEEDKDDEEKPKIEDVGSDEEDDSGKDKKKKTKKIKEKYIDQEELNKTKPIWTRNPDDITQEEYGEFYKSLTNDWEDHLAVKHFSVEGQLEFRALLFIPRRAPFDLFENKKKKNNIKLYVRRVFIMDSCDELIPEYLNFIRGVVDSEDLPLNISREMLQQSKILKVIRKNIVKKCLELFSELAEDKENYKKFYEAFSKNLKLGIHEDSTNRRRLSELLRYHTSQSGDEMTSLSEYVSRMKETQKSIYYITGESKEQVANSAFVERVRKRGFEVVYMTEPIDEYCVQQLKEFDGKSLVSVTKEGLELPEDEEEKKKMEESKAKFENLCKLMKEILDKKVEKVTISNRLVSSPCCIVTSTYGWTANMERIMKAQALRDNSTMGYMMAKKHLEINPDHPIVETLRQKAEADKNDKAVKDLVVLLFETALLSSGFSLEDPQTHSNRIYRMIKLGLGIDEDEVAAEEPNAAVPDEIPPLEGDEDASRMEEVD
Description: as §1, with “Collected cell pellets were pooled, and the cells were either extracted and subjected to separation and purification at that time, or were frozen and stored at −20° C. as pellets for extraction and investigation at a later time.” left out
as §2
(§3) MALDI-MS peptide fingerprinting analysis identified HSP 90β (PG771) in fraction #4 and L-plastin (PG772) in fraction #9. […] A positive spot on the film (fluorographically positive, therefore positive for ^3H-associated radioactivity) was seen near the 29 kDa protein marker. […]

Vimentin (PG778) = target: T3, Vimentin (PG778) (Homo sapiens, UniProt P08670); test: Isolation of proteins binding 3H-triptolide in Jurkat cells; details: 3H-labeled Jurkat cell extract
T3 construct: endogenous in cells; host or cells: Jurkat
T3 sequence (P08670 whole entry): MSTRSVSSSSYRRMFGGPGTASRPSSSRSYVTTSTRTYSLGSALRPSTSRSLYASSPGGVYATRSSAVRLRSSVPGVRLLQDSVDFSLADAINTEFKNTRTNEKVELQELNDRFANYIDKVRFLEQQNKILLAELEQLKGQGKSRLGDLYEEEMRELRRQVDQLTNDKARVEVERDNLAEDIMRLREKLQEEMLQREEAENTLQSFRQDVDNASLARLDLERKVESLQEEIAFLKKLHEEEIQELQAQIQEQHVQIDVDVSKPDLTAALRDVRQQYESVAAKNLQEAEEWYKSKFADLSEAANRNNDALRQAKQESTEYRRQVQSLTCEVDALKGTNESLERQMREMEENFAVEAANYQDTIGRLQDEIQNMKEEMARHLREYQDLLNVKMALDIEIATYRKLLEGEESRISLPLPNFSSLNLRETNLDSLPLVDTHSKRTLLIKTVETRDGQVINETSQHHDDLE
Description: as §1, §2

14-3-3 ε (PG773) = target: T4, 14-3-3 ε (PG773) (Homo sapiens, UniProt P62258); test: as above; details: 3H-labeled compound incubated with Jurkat cells
T4 construct: endogenous in cells; host or cells: Jurkat
T4 sequence (P62258 whole entry): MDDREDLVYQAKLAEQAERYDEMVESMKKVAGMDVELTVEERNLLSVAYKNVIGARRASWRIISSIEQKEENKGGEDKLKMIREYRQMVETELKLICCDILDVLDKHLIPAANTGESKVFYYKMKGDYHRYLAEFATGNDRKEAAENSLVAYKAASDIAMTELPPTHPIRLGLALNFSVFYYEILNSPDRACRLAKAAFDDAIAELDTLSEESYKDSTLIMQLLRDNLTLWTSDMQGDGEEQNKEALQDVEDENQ
Description: as §1, with “Collected cell pellets were pooled, and the cells were either extracted and subjected to separation and purification at that time, or were frozen and stored at −20° C. as pellets for extraction and investigation at a later time.” left out
as §2, §3

[3] = tested on: Hypothetical Protein (GI 14758649), similar to heat shock protein (90 kDa) beta (PG787); test: as above; set-up: species or system human; details: 3H-labeled Jurkat cell extract
Description: as §1, §2

T1 sequence (Q9NXE4 whole entry): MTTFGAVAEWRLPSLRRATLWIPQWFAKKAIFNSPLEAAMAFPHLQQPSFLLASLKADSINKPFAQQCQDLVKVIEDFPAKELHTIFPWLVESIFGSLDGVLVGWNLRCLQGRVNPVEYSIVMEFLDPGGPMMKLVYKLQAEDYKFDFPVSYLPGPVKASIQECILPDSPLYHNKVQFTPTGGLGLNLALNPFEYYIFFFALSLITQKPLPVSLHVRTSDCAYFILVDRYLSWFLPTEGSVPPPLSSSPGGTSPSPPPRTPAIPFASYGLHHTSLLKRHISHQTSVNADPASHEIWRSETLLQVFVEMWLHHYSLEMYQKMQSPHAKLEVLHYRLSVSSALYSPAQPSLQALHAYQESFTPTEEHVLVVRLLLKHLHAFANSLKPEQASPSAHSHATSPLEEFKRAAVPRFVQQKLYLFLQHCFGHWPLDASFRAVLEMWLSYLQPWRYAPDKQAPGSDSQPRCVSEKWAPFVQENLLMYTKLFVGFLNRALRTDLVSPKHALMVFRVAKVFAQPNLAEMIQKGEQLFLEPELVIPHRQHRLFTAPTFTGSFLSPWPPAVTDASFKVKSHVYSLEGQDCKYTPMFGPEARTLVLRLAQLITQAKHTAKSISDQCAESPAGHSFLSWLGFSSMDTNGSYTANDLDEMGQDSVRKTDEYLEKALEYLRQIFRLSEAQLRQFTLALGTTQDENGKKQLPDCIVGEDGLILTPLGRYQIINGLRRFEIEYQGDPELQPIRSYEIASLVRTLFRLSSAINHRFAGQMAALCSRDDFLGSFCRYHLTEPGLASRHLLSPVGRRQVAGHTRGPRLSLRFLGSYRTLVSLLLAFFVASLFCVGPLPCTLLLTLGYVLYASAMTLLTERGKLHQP

## CC(C)[C@]12O[C@H]1[C@@H]1O[C@]13[C@]1(O[C@H]1C[C@H]1C4=C(CC[C@@]13C)C(=O)OC4)[C@@H]2O [triptolide]
IL-2
  inhibition of IL-2: inhibition of IL-2
Dopaminergic neurons
  LPS-induced decrease in 3H-dopamine uptake and loss of tyrosine hydroxylase-positive neurons: attenuates
PC12 cells
  β-amyloid-induced apoptosis: markedly inhibit β-amyloid-induced apoptosis
  β-amyloid-induced increase of intracellular Ca2+ concentration: inhibit the increase of intracellular Ca^2+ concentration induced by β-amyloid
[1]
  3H-associated protein identified as triptolide target: FLJ20297: identification
[2]
  cytotoxicity: cytotoxicity in human T cell lymphoma (Jurkat) cells
NF-κB
  NF-κB activation: inhibit NF-κB activation
HSP 90β (PG771)
  3H-associated protein identified as triptolide target: HSP 90β: identified
Vimentin (PG778)
  3H-associated protein identified as triptolide target: Vimentin: identification
14-3-3 ε (PG773)
  3H-associated protein identified as triptolide target: 14-3-3 ε: identified
[3]
  3H-associated protein identified as triptolide target: GI 14758649: identified

— patent US8617906B2, “Identification and screening of triptolide target molecules” (priority 2004, dated 2013)
